Laboratory results reported in US5100907A, “Hydantoin esters” (Lonza, Inc., priority 1990, dated 1992).

Legend:
Aspergillus niger = assay: Antimicrobial study against Aspergillus niger (mold); format: cell-based; conditions: methylolated C8/10 10,800 ppm, methylolated lauric 11,400 ppm, DMDMH 3,000 ppm, others 14,700 ppm
Description: (§1) The antimicrobial properties of typical esters (I) and (Ia) were tested by minimum inhibitory concentration (MIC) tests, along with certain known substances, against […] strains of organisms: a mold, Aspergillus niger; a gram-positive bacteria, Staphylococcus aureus; and two gram-negative bacteria, Escherichia coli and Pseudomonas aeruginosa. […] These tests were used to determine any effect on biocidal activity of the varying chain length of the ester.
(§2) The known substances, on which identical tests were also performed, included the biocide, dimethyloldimethylhydantoin or DMDMH (iv), and a series of three surfactants, i.e., the three common emulsifiers, sodium lauryl sulfate (SLS); ethylene glycol distearate (EGDS), in the form of the commercial product PEGOSPERSE 50 DS (Lonza Inc.); and polyoxyethylene 20 sorbitan monoleate (POE 20 SMO), in the form of the commercial product GLYCOSPERSE 0 20 (Lonza Inc.).
(§3) The tests entailed contaminating a preexisting micro-colony with a known quantity (ppm, concentration) of test material. Each colony was then examined periodically over a one week period. […] A test was deemed non-efficacious when there was no decrease in colony size. In an effort to avoid any possible solvent effect, the micro-study was conducted in a totally aqueous solvent system without use of any other solvent.

Staphylococcus aureus = assay: Antimicrobial study against Staphylococcus aureus (gram-positive bacteria); format: cell-based; conditions: methylolated C8/10 10,800 ppm, methylolated lauric 11,400 ppm, DMDMH 3,000 ppm, others 14,700 ppm
Description: as §1, §2, §3

Escherichia coli = assay: Antimicrobial study against Escherichia coli (gram-negative bacteria); format: cell-based; conditions: methylolated C8/10 10,800 ppm, methylolated lauric 11,400 ppm, DMDMH 3,000 ppm, others 14,700 ppm
Description: as §1, §2, §3

Pseudomonas aeruginosa = assay: Antimicrobial study against Pseudomonas aeruginosa (gram-negative bacteria); format: cell-based; conditions: methylolated C8/10 10,800 ppm, methylolated lauric 11,400 ppm, DMDMH 3,000 ppm, others 14,700 ppm
Description: as §1, §2, §3

[1] = as formaldehyde donor; cited from earlier work
[2] = test system: mold, and gram-positive and gram-negative bacteria; assay: Antimicrobial tests, overall biocidal effectiveness; format: cell-based; conditions: under the test conditions
Description: as §1, §2, §3

[3] = Surface tension tests (cmc, Gibbs' Free Energy of Micellation); format: physicochemical
Description: Surface tension tests were conducted as to the relationship between the fatty acid aliphatic chain length, i.e. number of carbon atoms, in the esters (I), and their performance as surfactants. The length of the hydrophobic chain of a molecule is considered the major contributing factor to the critical micelle concentration (cmc) value of a surfactant. This value is obtained from surface tension measurement data. The lower the cmc, the more readily the material will form micelles.
The Gibbs' Free Energy of Micellation (ΔG°cmc) and the ΔG°cmc per --CH2 -- can be determined if the cmc is known.
The ΔG°cmc is a calculated value obtained by Equation 1.
ΔG°cmc =2.303RT(log cmc-log[water]) (Eq. 1)
The ΔG°cmc per --CH2 -- value is obtained from the slope of the straight line curve formed from a plot of ΔG°cmc versus the number of carbon atoms in the lipophilic chain.
The cmc values were based on surface tension tests conducted with a tensiometer (Cenco-DuNoug Precision Model #70535, direct reading model) to determine the upward surface tension at the liquid-air surface of the test ester/water solution. The methods used to calibrate the tensiometer, calculate the "correction factor" (used to correct for the difference between the apparent and true surface tension), and collect data, were conducted as described in the manual for the instrument. Sodium lauryl sulfate (SLS) and distilled water were used as reference samples.
On completing data collection, plots of the surface tension (dynes) versus -log of the concentration (mols/liter) were prepared, using only the "corrected" surface tension value, obtained by applying the noted "correction factor" in each case. The […] was found by multiplying the "apparent" surface tension by a calculated correction factor.
The critical micelle concentration (cmc) for each sample was determined by locating the point in the curve where the surface tension first begins to level off, per a known procedure.

| SMILES | Colony Count (Aspergillus niger; Day 0) | Colony Count (Aspergillus niger; Day 1) | Colony Count (Aspergillus niger; Day 2) | Colony Count (Aspergillus niger; Day 3) | Colony Count (Aspergillus niger; Day 7) | Colony Count (Staphylococcus aureus; Day 0) | Colony Count (Staphylococcus aureus; Day 1) | Colony Count (Staphylococcus aureus; Day 2) | Colony Count (Staphylococcus aureus; Day 3) | Colony Count (Staphylococcus aureus; Day 7) | Colony Count (Escherichia coli; Day 0) | Colony Count (Escherichia coli; Day 1) | Colony Count (Escherichia coli; Day 2) | Colony Count (Escherichia coli; Day 3) | Colony Count (Escherichia coli; Day 7) | Colony Count (Pseudomonas aeruginosa; Day 0) | Colony Count (Pseudomonas aeruginosa; Day 1) | Colony Count (Pseudomonas aeruginosa; Day 2) | Colony Count (Pseudomonas aeruginosa; Day 3) | Colony Count (Pseudomonas aeruginosa; Day 7) | also measured |
| --- | --- | --- | --- | --- | --- | --- | --- | --- | --- | --- | --- | --- | --- | --- | --- | --- | --- | --- | --- | --- | --- |
| CC1(C)C(=O)N(CO)C(=O)N1CO [DMDMH (iv), 1,3-dihydroxymethyl-5,5-dimethyl-1,3-diazacyclopentane-2,4-dione, reference compound] | 400 × 1,000 | < 0.03 × 1,000 | < 0.01 × 1,000 | < 0.01 × 1,000 | < 0.01 × 1,000 | TNC | TNC | TNC | < 0.01 × 1,000 | < 0.01 × 1,000 | TNC | TNC | TNC | < 0.01 × 1,000 | < 0.01 × 1,000 | TNC | TNC | < 0.01 × 1,000 | < 0.01 × 1,000 | < 0.01 × 1,000 | minimum inhibitory concentration (MIC) [1]: 0.1% |
| CCCCCCCCCCCCCCCCCC(=O)OCCOC(=O)CCCCCCCCCCCCCCCCC [EGDS, ethylene glycol distearate, reference compound] | 2,000 × 1,000 | 500 × 1,000 | 300 × 1,000 | 200 × 1,000 | 700 × 1,000 | 600 × 1,000 | 350 × 1,000 | TNC | TNC | 2,000 × 1,000 | 2,000 × 1,000 | TNC | TNC | TNC | TNC | 3,000 × 1,000 | TNC | TNC | 2,500 × 1,000 | TNC | biocidal effectiveness [2]: none of the three known long aliphatic chain containing emulsifiers, sodium lauryl sulfate, ethylene glycol distearate and POE 20 sorbitan monoleate, was effective as a biocide |
| CC1(C)C(=O)NC(=O)N1CO [MDMH (iii), 1-hydroxymethyl-5,5-dimethyl-1,3-diazacyclopentane-2,4-dione] | – | – | – | – | – | – | – | – | – | – | – | – | – | – | – | – | – | – | – | – | minimum inhibitory concentration (MIC) [1]: 0.2% |
| CCCCCCCCCCCCOS(=O)(=O)[O-].[Na+] [SLS, Sodium lauryl sulfate, reference compound] | 600 × 1,000 | 2,000 × 1,000 | 300 × 1,000 | 160 × 1,000 | 200 × 1,000 | 2,000 × 1,000 | 3,000 × 1,000 | TNC | 450 × 1,000 | < 0.01 × 1,000 | 8,000 × 1,000 | 20 × 1,000 | TNC | 160 × 1,000 | 60 × 1,000 | 4,100 × 1,000 | 500 × 1,000 | TNC | 30 × 1,000 | 50 × 1,000 | ΔG°cmc ([3]; Table 6): -5.552 kcal/mol; ΔG°cmc (Gibbs' Free Energy of Micellation) ([3]; calculated from cmc by Eq. 1, T=298° K.): -5.552 kcal/mol; cmc (critical micelle concentration) ([3]; ester/water solution): 4.4 × 10^-3 mol dm^-3; biocidal effectiveness [2]: none of the three known long aliphatic chain containing emulsifiers, sodium lauryl sulfate, ethylene glycol distearate and POE 20 sorbitan monoleate, was effective as a biocide |
